Measurements from patent US20240287042A1, “NOVEL COMPOUND HAVING INHIBITORY ACTIVITY AGAINST PENDRIN, AND PHARMACEUTICAL USES THEREOF” (UIF (University Industry Foundation), Yonsei University, priority 2021, published 2024).

Target: T1, human WT SLC26A9 (Homo sapiens, UniProt Q7LBE3)
T1 construct: expressed in transfected cells
T1 sequence (Q7LBE3 1-791): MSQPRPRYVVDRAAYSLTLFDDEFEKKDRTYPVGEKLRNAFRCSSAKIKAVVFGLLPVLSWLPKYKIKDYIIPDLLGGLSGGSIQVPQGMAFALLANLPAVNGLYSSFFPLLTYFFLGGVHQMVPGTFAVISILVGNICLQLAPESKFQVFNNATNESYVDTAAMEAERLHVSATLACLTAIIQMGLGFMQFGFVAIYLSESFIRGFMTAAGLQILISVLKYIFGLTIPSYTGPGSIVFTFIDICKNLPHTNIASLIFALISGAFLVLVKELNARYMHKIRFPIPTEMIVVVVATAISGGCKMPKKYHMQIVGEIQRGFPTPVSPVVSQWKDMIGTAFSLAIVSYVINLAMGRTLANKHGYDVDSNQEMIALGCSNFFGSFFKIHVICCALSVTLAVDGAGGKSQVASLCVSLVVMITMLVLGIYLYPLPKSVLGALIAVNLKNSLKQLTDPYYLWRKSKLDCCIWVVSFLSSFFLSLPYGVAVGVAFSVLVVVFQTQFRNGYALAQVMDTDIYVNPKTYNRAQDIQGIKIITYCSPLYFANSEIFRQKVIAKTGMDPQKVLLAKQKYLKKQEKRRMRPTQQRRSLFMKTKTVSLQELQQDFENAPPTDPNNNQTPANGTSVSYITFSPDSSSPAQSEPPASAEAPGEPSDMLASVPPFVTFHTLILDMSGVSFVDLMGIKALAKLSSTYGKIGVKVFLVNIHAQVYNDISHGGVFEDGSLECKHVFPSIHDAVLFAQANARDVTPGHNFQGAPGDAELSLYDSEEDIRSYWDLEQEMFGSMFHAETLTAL
Assay: SLC26A9 Cl−/I− exchange activity, YFP fluorescence in LN-215 cells
Assay type: cell-based
Conditions: 100 μM, FIG. 3
Procedure: Chinese hamster ovary (CHO)-K1 cells or LN-215 cells were cultured in DMEM medium containing 10% fetal bovine serum (FBS), 100 units/ml of penicillin and 100 μg/ml streptomycin. CHO-K1 cells or LN-215 cells were stably transfected with pcDNA3.1 encoding the halide sensor YFP-H148Q/I152L/F46L and human wild-type (WT)-SLC26A9. Fisher rat thyroid (FRT) cells stably transfected with YFP-H148Q/I152L/F46L and human wild type (WT)-CFTR or human wild type (WT)-ANO1 were cultured in DMEM/F-12 medium containing 10% fetal bovine serum (FBS), 100 units/ml of penicillin, and 100 μg/ml of streptomycin.
LN-215 cells expressing human WT SLC26A9 and YFP-F46L/H148Q/I152L, and FRT cells expressing human WT CFTR or ANO1 and YFP-F46L/H148Q/I152L were plated in 96-well microplates at a density of 2×10^4 cells per well, and cultured for 48 hours. […] After culturing at 37° C. for 10 minutes, the 96-well plate was located on the FLUOstar Omega Microplate Reader (BMG Labtech, Ortenberg, Germany) for a fluorescence assay. For assay of the activity of […], fluorescence was recorded continuously (400 ms per point) for 1 second (baseline), whereby each well was assayed individually for SLC26A9-mediated I-influx. Then, 50 μL of NaI-substituted HEPES buffered solution (replacing NaCl with NaI) was added using a liquid injector at 1 second, and YFP fluorescence was recorded for 6 seconds. […]

| Compound | Effect on activity of SLC26A9 |
| --- | --- |
| Cc1ccc2[nH]c(C(=O)O)c(CC(=O)N3CCN(c4c(C)cccc4Cl)CC3)c2c1 [YPI-A4948, 3-(2-(4-(2-Chloro-6-methylphenyl)piperazin-1-yl)-2-oxoethyl)-5-methyl-1H-indole-2-carboxylic acid] | did not inhibit |
| Cc1ccc(C)c(N2CCN(C(=O)Cc3c(C(=O)O)[nH]c4ccc(Cl)cc34)CC2)c1 [YPI-H05, 5-chloro-3-(2-(4-(2,5-dimethylphenyl)piperazin-1-yl-)-2-oxoethyl)-1H-indole-2-carboxylic acid] | did not inhibit |
